Results published in US6875788B2, “Imidazoline compounds” (Les Laboratoires Servier, priority 2002, dated 2005).

How the values were obtained:
obese ob/ob mouse = assay: Hypolipaemic activity in the obese ob/ob mouse; format: in vivo; details: oral route 30 mg/kg/day for 4 days, treated vs. untreated animals
Method: The products of the invention were tested in vivo in the obese ob/ob mouse, used as a model of obesity-associated insulin resistance. […] In this model, the compounds of the invention are thus shown also to be powerful hypolipaemics.

non-diabetic Wistar rats = assay: Oral glucose tolerance test (OGTT), hypoglycaemic activity in non-diabetic Wistar rats; format: in vivo, rat; details: 10 mg/kg per os 1 hour before OGTT (glucose 2 g/kg per os)
STZ Wistar rats = assay: Oral glucose tolerance test (OGTT), hypoglycaemic activity in STZ (streptozotocin) Wistar rats; format: in vivo, rat; details: 10 mg/kg per os 1 hour before OGTT (glucose 2 g/kg per os)
Method: The hypoglycaemic activity of the compounds of the invention was examined in three-month-old male Wistar rats weighing about 250 g. An experimental diabetes is obtained by the iv injection, under ketamine hydrochloride anaesthesia, of a low dose of streptozotocin (35 mg/kg iv) dissolved in a citrate buffer. Such rats are called STZ rats and are characterised by a slight basal hyperglycaemia, a marked intolerance to glucose and a clear change in the secretion of insulin.
Homeostasis was evaluated by a glucose tolerance test, carried out two weeks after injection with streptozotocin.
(§1) Oral Glucose Tolerance Test (OGTT)
(§2) Glucose is administered per os (2 g/kg) to conscious rats. Blood samples are collected before and 10, 20, 30, 40, 60, 90 and 120 minutes after the glucose administration.
(§3) The product to be tested is administered per os 1 hour before the OGTT, and the control animals receive solvent (gum arabic).

Zucker rats = assay: Oral glucose tolerance test (OGTT), hypoglycaemic activity in Zucker fatty fa/fa rats; format: in vivo, rat; details: 10 mg/kg per os 1 hour before OGTT (glucose 2 g/kg per os)
Method: Finally, the hypoglycaemic activity was evaluated in “Zucker” rats. “Zucker fatty” fa/fa rats arose following a spontaneous mutation of the 13M strain (Zucker & Zucker, 1961), and are genetically insulin-resistant and obese.
Their obesity can be observed from the age of four weeks, and is thus accompanied by insulin resistance, hyperinsulinaemia and hyperlipidaemia. […] Homeostasis was evaluated likewise by a glucose tolerance test.
as §1, §2, §3

serotonin reuptake sites = biological target: T1, serotonin reuptake sites (Rattus norvegicus, UniProt P31652); assay: Affinity for serotonin reuptake sites, competition with [3H]-paroxetine on rat frontal cortex membranes; format: binding; details: 0.25 nM [3H]-paroxetine, 2 hours, 25° C.
T1 construct: The membranes from the rat frontal cortex are prepared and incubated in triplicate; from tissue; host or cells: rat frontal cortex membranes
T1 sequence (P31652 whole entry): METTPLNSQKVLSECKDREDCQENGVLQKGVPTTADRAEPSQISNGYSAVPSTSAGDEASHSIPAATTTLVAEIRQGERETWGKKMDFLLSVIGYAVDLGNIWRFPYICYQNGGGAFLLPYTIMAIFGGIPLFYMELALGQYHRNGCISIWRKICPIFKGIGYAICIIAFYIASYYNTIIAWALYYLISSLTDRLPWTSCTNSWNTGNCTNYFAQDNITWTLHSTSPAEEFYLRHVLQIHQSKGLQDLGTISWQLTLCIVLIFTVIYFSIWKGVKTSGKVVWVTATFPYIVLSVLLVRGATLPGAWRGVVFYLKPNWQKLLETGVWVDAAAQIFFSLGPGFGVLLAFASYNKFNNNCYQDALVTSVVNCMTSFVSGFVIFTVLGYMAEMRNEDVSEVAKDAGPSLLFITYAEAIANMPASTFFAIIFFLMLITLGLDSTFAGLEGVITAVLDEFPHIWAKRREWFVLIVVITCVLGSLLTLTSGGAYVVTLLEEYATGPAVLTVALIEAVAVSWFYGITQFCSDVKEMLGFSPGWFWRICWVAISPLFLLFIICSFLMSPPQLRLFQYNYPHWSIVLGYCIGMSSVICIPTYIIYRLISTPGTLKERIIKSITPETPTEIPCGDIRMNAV
Method: The affinity of the compounds of the invention was determined by competition experiments with [^3H]-paroxetine. The membranes from the rat frontal cortex are prepared and incubated in triplicate for 2 hours, at 25° C., with 0.25 nM [^3H]-paroxetine and the cold ligand in a final volume of 0.4 ml. The incubation buffer contains 50 mM TRIS-HCl (pH 7.4), 120 mM NaCl and 5 mM KCl. The non-specific binding is determined using 10 μM citalopram. At the end of incubation, the medium is filtered through filters and washed three times with 5 ml of cooled buffer. The radioactivity retained on the filters is determined by liquid scintillation counting. The binding isotherms are analysed by non-linear regression in order to determine the IC50 values.

SMILES | lowers the triglycerides (obese ob/ob mouse) [%] | reduces glycaemia (non-diabetic Wistar rats) [%] | reduces glycaemia (STZ Wistar rats) [%] | reduces glycaemia (Zucker rats) [%] | IC50 (serotonin reuptake sites) [µM]
CC1CNC(C(c2ccsc2)C2CCCCC2)=N1 (stereo not drawn) [Example 6, 2-[Cyclohexyl(3-thienyl)methyl]-4-methyl-4,5dihydro-1H-imidazole] | 32 | 13 | 18 | 14 | –
c1ccc(C(C2=NCCN2)C2CCCCC2)cc1 (stereo not drawn) [2-[cyclohexyl(phenyl)methyl]-4,5-dihydro-1H-imidazole, reference compound] | – | – | – | – | 0.15
c1cc(C(C2=NCCN2)C2CCCCC2)cs1 (stereo not drawn) [Example 3, 2-[Cyclohexyl(3-thienyl)methyl]-4,5-dihydro-1H-imidazole] | – | – | – | – | 2
